These results are taken from patent publication US9200008B2 (ASKA PHARMACEUTICAL CO., LTD., priority 2010, dated 2015).

The test system of the test is Human prostate cancer cell lines (PC-3 cells). Briefly: Measurement of cell death-inducing activity (Test Example 1). In kind it is cell-based. The following applies: PC-3, 48 h, 48 hours after addition, tested at 10, 1, 0.1, 0.025 and 0.00625 μmol/L, qualitative evaluation of 10 fields, read-out: Concentration showing the cell death-inducing activity (cell death-inducing rate not less than 40%). Here is the method:
The cell death-inducing activity of the compound represented by the formula (1) or the salt thereof was measured as follows.
Human prostate cancer cell lines (PC-3 cells) were seeded to 6-well plates at 1×10^5 cells/2 mL/well, and cultured in the presence of 5% CO2 at 37° C. for 48 hours. Thereafter, each compound was added thereto so as to provide 10, 1, 0.1, 0.025 and 0.00625 μmol/L. As a control, DMSO was added. After the addition, the cells were continuously cultured for 48 hours. […] When the cell death-inducing rate was not less than 40%, the compound was judged to have the cell death-inducing activity.

The structures appear in SMILES notation.

As to `CCn1nc(-c2ccc(C)cc2OC)cc1COC(=O)Nc1ccc2c(c1)nc1n2CCC1` [Example 13-113], the minimal effective concentration was determined as 0.00625 µM.

As to `Cc1cc(/C=N/NC(=O)c2cnc(-c3ccccc3Cl)s2)cc(C)c1O` [Example 23-143], the minimal effective concentration was 1 µM.

Turning to `CCc1nc(-c2ccc(C)cc2OC)sc1NC(=O)OCc1ccc2c(c1)nc1n2CCC1` [Example 9-171], the minimal effective concentration amounted to 0.025 µM.

In the case of `CCCOc1ccccc1-c1nc(C)c(C(=O)N/N=C/c2ccc(OC)cc2)s1` [Example 23-149], the minimal effective concentration came out at 0.1 µM.

For `CCn1c(C)nc2cc(COC(=O)Nc3sc(-c4ccccc4OC)nc3C)ccc21` [Example 9-85], the minimal effective concentration worked out at 1 µM.

As for `Cc1cc(Cl)ccc1-c1nc(C)c(NC(=O)OCc2ccc3c(c2)nc2n3CCCC2)s1` [Example 9-115], the minimal effective concentration is 0.1 µM.

Regarding `CCn1cnc2cc(COC(=O)Nc3sc(-c4ccc(F)cc4OC)nc3C)ccc21` [Example 9-58], the minimal effective concentration amounted to 0.00625 µM.

As to `CCn1nc(-c2ccc(F)cc2OC)cc1NC(=O)OCc1ccc2c(c1)nc1n2CCC1` [Example 9-257], the minimal effective concentration came to 0.1 µM.

`CCn1nc(-c2ccc(C)cc2C)cc1COC(=O)Nc1ccc2c(c1)nc1n2CCC1` [Example 13-111]: the minimal effective concentration came out at 0.00625 µM.

For `Cc1ccc(-c2nc(C)c(C(=O)N/N=C/c3ccc(O)c(C)c3)s2)c(C)c1` [Example 23-45], the minimal effective concentration was 1 µM.

As for `Cc1cc(/C=N/NC(=O)c2sc(-c3ccc(Cl)cc3)nc2C)cc(C)c1O` [Example 23-8], the minimal effective concentration is 1 µM.

Turning to `Cc1cc(Cl)ccc1-c1nc(C)c(C(=O)N/N=C/c2cc(C)c(O)c(C)c2)s1` [Example 23-123], the minimal effective concentration is 0.1 µM.

`CCc1nc(-c2ccc(C)cc2C)sc1NC(=O)OCc1ccc2c(c1)ncn2CC` [Example 9-166]: the minimal effective concentration was 0.025 µM.

Turning to `COc1cc(C)ccc1-c1cc(NC(=O)OCc2ccc3c(c2)ncn3C)n(C)n1` [Example 9-226], the minimal effective concentration was 0.00625 µM.

As for `CCc1nc(-c2ccc(F)cc2C)sc1COC(=O)Nc1ccc2c(c1)ncn2C` [Example 13-149], the minimal effective concentration is 0.025 µM.

As to `COc1ccc(-c2nc(C)c(NC(=O)OCc3ccc4c(c3)ncn4C(C)C)s2)c(OC)c1` [Example 9-72], the minimal effective concentration was determined as 1 µM.

Turning to `COc1ccccc1-c1cc(C(=O)N/N=C/c2ccc3c(c2)ncn3C)sn1` [Example 49-2, 3-(2-Methoxyphenyl)isothiazole-5-carboxylic acid[1-(1-methyl-1H-benzimidazol-5-yl)methylidene]hydrazide], the minimal effective concentration was found to be 0.025 µM.

Regarding `Cc1ccccc1-c1nc(C)c(NC(=O)OCc2ccc3c(c2)nc2n3CCC2)s1` [Example 9-99], the minimal effective concentration was determined as 1 µM.

As to `COc1cc(/C=N/NC(=O)c2sc(-c3ccccc3Cl)nc2C)cc(O)c1OC` [Example 23-5], the minimal effective concentration is 10 µM.

Consider `COc1cc(C)ccc1-c1nc(C)c(NC(=O)OCc2ccc3c(c2)nc2n3CCC(C)C2)s1` (centres unmarked) [Example 9-121], for which the minimal effective concentration stood at 1 µM.

Consider `CCc1nc(-c2ccc(C)cc2OC)sc1NC(=O)OCc1ccc2nn(CC)cc2c1` [Example 9-368], for which the minimal effective concentration came out at 0.1 µM.

Turning to `CCn1cc2cc(NC(=O)OCc3sc(-c4ccc(Cl)cc4C)nc3C)ccc2n1` [Example 13-55], the minimal effective concentration amounted to 0.025 µM.

Consider `COc1cc(C)ccc1-c1cc(COC(=O)Nc2ccc3c(c2)nc2n3CCCC2)n(C)n1` [Example 13-120], for which the minimal effective concentration stood at 0.025 µM.

Consider `CCn1cnc2cc(NC(=O)OCc3cc(-c4ccc(C)cc4C)nn3C)ccc21` [Example 13-92], for which the minimal effective concentration was found to be 0.00625 µM.

Regarding `COc1ccc2c(c1)CC/C2=N\NC(=O)c1sc(-c2ccc(Cl)cc2OC)nc1C` [Example 23-165], the minimal effective concentration stood at 1 µM.

Turning to `COc1ccc(/C=N/NC(=O)c2sc(-c3ccccc3OC)nc2C)cc1F` [Example 23-68], the minimal effective concentration came to 0.1 µM.

For the compound `COc1cc(Cl)ccc1-c1nc(C)c(NC(=O)OCc2ccc3c(c2)nc2n3CCC2)s1` [Example 9-103], the minimal effective concentration was found to be 0.00625 µM.

`COc1cc(C)ccc1-c1nc(C)c(NC(=O)OCc2ccc3c(c2)nc2n3CCN(C)C2)s1` [Example 38-2, [2-(2-Methoxy-4-methylphenyl)-4-methylthiazol-5-yl]carbamic acid 2-methyl-1,2,3,4-tetrahydrobenzo[4,5]imidazo[1,2-a]pyrazin-8-ylmethyl ester]: the minimal effective concentration came out at 10 µM.

Regarding `COc1ccc(/C=N/NC(=O)c2sc(-c3ccncc3)nc2C)cc1O` [Example 23-40], the minimal effective concentration turned out to be 10 µM.

As for `COc1ccc(CN(C)NC(=O)c2sc(-c3ccc(C)cc3C)nc2C)cc1` [Example 16-11], the minimal effective concentration worked out at 0.1 µM.

Turning to `CCn1cnc2cc(NC(=O)OCc3cc(-c4ccccc4OC)nn3C)ccc21` [Example 13-78], the minimal effective concentration was determined as 0.1 µM.

`CCc1nc(-c2ccc(F)cc2C)sc1COC(=O)Nc1ccc2c(c1)nc1n2CCSC1` [Example 43-4]: the minimal effective concentration came to 1 µM.

As to `Cc1ccc(-c2cc(NC(=O)OCc3ccc4c(cnn4C)c3)n(C)n2)c(C)c1` [Example 9-285], the minimal effective concentration turned out to be 0.1 µM.

As to `CCn1nc(-c2ccccc2OC)cc1NC(=O)OCc1ccc2c(c1)ncn2CC` [Example 9-216], the minimal effective concentration was 1 µM.

As for `CCn1nc(-c2ccc(C)cc2C)cc1NC(=O)OCc1ccc2nn(C)cc2c1` [Example 9-296], the minimal effective concentration came out at 1 µM.

As for `CCn1cnc2cc(COC(=O)Nc3c(C)c(-c4ccc(Cl)cc4OC)nn3C)ccc21` [Example 9-313], the minimal effective concentration came to 10 µM.

For `COc1ccc(/C=N/NC(=O)c2cc(-c3ccccc3C)n[nH]2)cc1O` [Example 22-3], the minimal effective concentration was determined as 1 µM.

As to `COCc1nc2cc(NC(=O)OCc3cc(-c4ccc(C)cc4OC)nn3C)ccc2n1C` [Example 13-93], the minimal effective concentration stood at 1 µM.

For the compound `Cc1cc(Cl)ccc1-c1nc(C)c(COC(=O)Nc2ccc3c(c2)nc2n3CCSC2)s1` [Example 43-2], the minimal effective concentration amounted to 0.025 µM.

As for `CCn1nc(-c2ccc(C)cc2OC)cc1COC(=O)Nc1ccc2c(c1)ncn2C` [Example 13-89], the minimal effective concentration worked out at 0.00625 µM.

Take `COc1cc(Cl)ccc1-c1nc(C)c(C(=O)NN(C)Cc2ccc(SC)cc2)s1` [Example 16-22]: the minimal effective concentration was 1 µM.

Regarding `CCn1cnc2cc(COC(=O)Nc3cc(-c4ccc(C)cc4C)nn3C)ccc21` [Example 9-235], the minimal effective concentration amounted to 0.00625 µM.

Regarding `CCc1ccccc1-c1nc(C)c(NC(=O)OCc2ccc3c(cnn3C)c2)s1` [Example 9-125], the minimal effective concentration worked out at 1 µM.

For `COc1ccccc1-c1nc(C)c(C(=O)N/N=C/c2ccc3c(c2)CCO3)s1` [Example 23-153], the minimal effective concentration stood at 0.1 µM.

For `Cc1cc(/C=N/NC(=O)c2cc(-c3ccc(Cl)cc3)oc2C)cc(C)c1O` [Example 23-167, 5-(4-Chlorophenyl)-2-methylfuran-3-carboxylic acid [1-(4-hydroxy-3,5-dimethylphenyl)methylidene]hydrazide], the minimal effective concentration was determined as 1 µM.

Regarding `CCn1cc2cc(NC(=O)OCc3sc(-c4ccc(F)cc4C)nc3C)ccc2n1` [Example 13-54], the minimal effective concentration is 0.1 µM.

As to `CCc1nc(-c2ccc(C)cc2OC)sc1NC(=O)OCc1ccc2c(cnn2CC)c1` [Example 9-174], the minimal effective concentration was 0.025 µM.

For the compound `CCc1cc(F)ccc1-c1nc(C)c(NC(=O)OCc2ccc3c(c2)nc2n3CCC2)s1` [Example 9-102], the minimal effective concentration turned out to be 0.025 µM.

For `O=C(Nc1ccc2c(c1)nc1n2CCCC1)OCc1cc(-c2ccc(Cl)cc2Cl)ns1` [Example 47-8], the minimal effective concentration stood at 1 µM.

Take `COc1ccccc1-c1cc(C(=O)N/N=C/c2cc(C)c(O)c(C)c2)[nH]n1` [Example 22-6]: the minimal effective concentration was found to be 1 µM.

Turning to `Cc1cc(/C=N/NC(=O)c2sc(C3CCCCC3)nc2C)cc(C)c1O` [Example 23-129], the minimal effective concentration is 10 µM.

On to `CCn1cc2ccc(COC(=O)Nc3cc(-c4ccc(C)cc4C)nn3C)cc2n1` [Example 9-304], for which the minimal effective concentration came out at 1 µM.

As for `CCn1nc(-c2ccccc2OC)cc1COC(=O)Nc1ccc2c(c1)nc1n2CCOC1` [Example 13-96], the minimal effective concentration came out at 0.1 µM.

As for `CCn1nc(-c2ccccc2OC)cc1COC(=O)Nc1ccc2c(cnn2C)c1` [Example 13-124], the minimal effective concentration turned out to be 10 µM.

Consider `COc1ccccc1-c1nc(C)c(C(=O)N/N=C/c2ccc3ccn(C)c3c2)s1` [Example 23-93], for which the minimal effective concentration was 0.1 µM.

Regarding `CCn1nc(-c2ccc(F)cc2OC)cc1NC(=O)OCc1ccc2c(cnn2C)c1` [Example 9-279], the minimal effective concentration was 1 µM.

For the compound `CCn1nc(-c2ccc(Cl)cc2OC)cc1COC(=O)Nc1ccc2c(cnn2C)c1` [Example 13-128], the minimal effective concentration worked out at 1 µM.

Regarding `CCc1ccccc1-c1nc(C)c(NC(=O)OCc2ccc3nn(C)cc3c2)s1` [Example 9-142], the minimal effective concentration was found to be 0.1 µM.

Take `CCc1nc(-c2ccc(C)cc2OC)sc1NC(=O)OCc1ccc2nn(C)cc2c1` [Example 9-365]: the minimal effective concentration was found to be 0.025 µM.

In the case of `CCn1cnc2cc(COC(=O)Nc3sc(-c4ccc(C)cc4)nc3C)ccc21` [Example 9-55], the minimal effective concentration worked out at 10 µM.

On to `CCCc1nc(-c2ccc(Cl)cc2)sc1C(=O)N/N=C/c1ccc(OC)c(O)c1` [Example 23-102], for which the minimal effective concentration was 10 µM.

In the case of `CCn1ncc2cc(COC(=O)Nc3sc(-c4ccc(F)cc4OC)nc3C)ccc21` [Example 9-135], the minimal effective concentration stood at 0.025 µM.
